Values after ≈ are worked out from the molar mass of the structure shown.
Key:
[1] = test system: COS-1 or CHO cell; experiment: Mammalian cell cytotoxicity assay (Resazurin; Alamar Blue); type: cell-based; details: COS-1 or CHO cells, 24 hour incubation
Description: To predict the in vivo risks associated with the compounds of the invention, a soluble, non-toxic redox dye (“Resazurin”; Alamar Blue) was used to assess a compound's effect on cellular metabolism. COS-1 or CHO cell suspensions were prepared, seeded into 96-well black-walled microtiter plates, and incubated overnight at 37° C., in 5% CO2 and approximately 95% humidity. On the next day, serial dilutions of test drug were prepared and transferred to cell plates. Following a 24 hour incubation period, the media/drug was aspirated, and 50 μL of resazurin was added. After a 2 hour incubation, fluorescence measurements were taken (excitation […], emission 590 nm) and toxic effects in treated versus control cells were compared based on the degree of fluorescence in each well.

[2] = test system: S. aureus RN450; experiment: In vitro MIC assay, S. aureus RN450; type: cell-based; details: Staphylococcus aureus, broth microdilution, 35° C., 18-24 hours
[3] = test system: B. fragilis (ATCC 25285); experiment: In vitro MIC assay, B. fragilis (ATCC 25285); type: cell-based; details: Bacteroides fragilis, ATCC25285
[4] = test system: P. acnes (ATCC 6919); experiment: In vitro MIC assay, P. acnes (ATCC 6919); type: cell-based; details: Cutibacterium acnes, ATCC6919; Brucella agar with laked sheep blood, 48 hours anaerobic, 35° C.
[5] = test system: S. pneumoniae 157E; experiment: In vitro MIC assay, S. pneumoniae 157E; type: cell-based; details: Streptococcus pneumoniae, broth supplemented with lysed horse blood, 35° C., 18-24 hours
[6] = test system: S. aureus RN4250; experiment: In vitro MIC assay, S. aureus RN4250; type: cell-based; details: Staphylococcus aureus, broth microdilution, 35° C., 18-24 hours
[7] = test system: E. coli (ATCC 25922); experiment: In vitro MIC assay, E. coli (ATCC 25922); type: cell-based; details: Escherichia coli, ATCC25922; broth microdilution, 35° C., 18-24 hours
[8] = test system: P. acnes (PBS 1074); experiment: In vitro MIC assay, P. acnes (PBS 1074); type: cell-based; details: Cutibacterium acnes; Brucella agar with laked sheep blood, 48 hours anaerobic, 35° C.
[9] = test system: P. acnes (ATCC 1077); experiment: In vitro MIC assay, P. acnes (ATCC 1077); type: cell-based; details: Cutibacterium acnes, ATCC1077; Brucella agar with laked sheep blood, 48 hours anaerobic, 35° C.
[10] = test system: B. theraiotaomicron (ATCC 29741); experiment: In vitro MIC assay, B. theraiotaomicron (ATCC 29741); type: cell-based
[11] = test system: P. acnes (ATCC 11827); experiment: In vitro MIC assay, P. acnes (ATCC 11827); type: cell-based; details: Cutibacterium acnes, ATCC11827; Brucella agar with laked sheep blood, 48 hours anaerobic, 35° C.
[12] = test system: P. acnes (PBS 1073); experiment: In vitro MIC assay, P. acnes (PBS 1073); type: cell-based; details: Cutibacterium acnes; Brucella agar with laked sheep blood, 48 hours anaerobic, 35° C.
[13] = test system: S. aureus MRSA5; experiment: In vitro MIC assay, S. aureus MRSA5; type: cell-based; details: Staphylococcus aureus, broth microdilution, 35° C., 18-24 hours
[14] = test system: P. aeruginosa K1033; experiment: In vitro MIC assay, P. aeruginosa K1033; type: cell-based; details: Pseudomonas aeruginosa, broth microdilution, 35° C., 18-24 hours
[15] = test system: H. influenza (ATCC 49247); experiment: In vitro MIC assay, H. influenza (ATCC 49247); type: cell-based; details: read-out: MIC H. influenza (ATCC 49247)
[16] = test system: E. coli MG 1655 DWAK; experiment: In vitro MIC assay, E. coli MG 1655 DWAK; type: cell-based; details: Escherichia coli, MG1655DWAK; broth microdilution, 35° C., 18-24 hours
Description: The following assay was used to determine the efficacy of tetracycline compounds against common bacteria. Serial dilutions of compounds were prepared in microdilution plates using a Tecan robotic workstation. Mueller Hinton broth cultures of gram negative and gram positive strains were grown or adjusted to match the turbidity of a 0.5 McFarland standard. 1:200 dilutions were made in appropriate broth (cation supplemented Mueller Hinton broth or Haemophilus test medium) to allow a final inoculum of 1×10^5 cfu. Lysed horse blood was used to supplement broth for testing S. pneumoniae. The plates were incubated at 35° C. in ambient air for 18-24 hours, read spectrophotometrically, and checked manually for evidence of bacterial growth. Serial dilutions of compounds were also added to Brucella agar supplemented with laked sheep blood for P. acnes tests. A standard inoculum was transferred to the plate using a stainless steel replicator. After 48 hours of anaerobic incubation at 35° C. plates were examined. The MIC was defined as the lowest concentration of the tetracycline compound that inhibits growth. Table 3 gives the MIC (μg/mL) of selected substituted tetracycline compounds against a variety of gram positive and gram negative bacteria.

[17] = test system: carrageenan induced paw edema; experiment: Rat model of carrageenan induced paw edema; type: in vivo; details: 3 hours after carrageenan injection
Description: Carrageenan-induced paw edema represents a commonly used experimental model to assess the anti-inflammatory properties of agents. In this example, male Sprague-Dawley rats (Charles River, Mass.) weighing 175-250 grams were used. Test compounds were administered intraperitoneally 5 minutes or orally 15 minutes before a subplantar injection of carrageenan (5 mg/1 ml) in the rat right hind paw. The paw volume (ml) was monitored with a plethysmometer (Water Plethysmometer) at time of carrageenan injection (baseline) and 3 hours after carrageenan injection. […] Both results were statistically significant with a p<0.1 level by Kruskal-Wallis One Way ANOVA, ChiSquare. There were approximately four rats per group.

[18] = test system: Mouse 3T3 fibroblast cells; experiment: Phototoxicity assay (neutral red); type: cell-based; details: 3T3 cells
Description: Mouse 3T3 fibroblast cells were harvested and plated at a concentration of 1×10^5 cells/mL. Drug dilutions were made in HBSS and added to the plates. Duplicate plates were then incubated in the dark (for controls), or under UV light (meter reading of 1.6-1.8 mW/cm^2) for 50 minutes. Cells were then washed with HBSS, fresh medium was added, and plates were then incubated overnight. The following day, neutral red was added as an indicator of cell viability and plates were incubated for an additional 3 hours. Cells were then washed with HBSS and a solution of 50% EtOH, 10% glacial acetic acid is added. After a 20 minute incubation period, plates absorbance at 535 nm were read using a Wallac Victor 5 spectrophotometer. The phototoxicity in light-treated and control cultures was then compared.

[19] = test system: P. granulosum (PBS 1048); experiment: In vitro MIC assay, P. granulosum (PBS 1048); type: cell-based
[20] = test system: P. acnes (PBS 994); experiment: In vitro MIC assay, P. acnes (PBS 994); type: cell-based; details: Cutibacterium acnes; Brucella agar with laked sheep blood, 48 hours anaerobic, 35° C.
[21] = test system: P. acnes (PBS 1080); experiment: In vitro MIC assay, P. acnes (PBS 1080); type: cell-based; details: Cutibacterium acnes; Brucella agar with laked sheep blood, 48 hours anaerobic, 35° C.
[22] = test system: P. granulosum (PBS 1098); experiment: In vitro MIC assay, P. granulosum (PBS 1098); type: cell-based
[23] = test system: E. coli translation; experiment: In vitro translation assay for inhibition of bacterial protein synthesis (E. coli S30 Extract System, luciferase); type: biochemical; details: 37° C., 1 hour, luciferase luminescence
Description: As a further measure of antibacterial activity, an E. coli S30 Extract System was used to quantitate inhibition of E. coli translation by tetracycline derivatives. This system contained all required components for translation, including a nucleic acid template which, when translated, produces functional luciferase. The reactions were set up with E. coli S30 extract, amino acids, DNA template and selected tetracycline compounds at concentrations of 100, 50, 25, 10, 5, and 1 μg/ml. The reactions were incubated at 37° C. for 1 hour and analyzed by adding the reaction mix to Steady-Glo Luciferase Assay substrate (Promega, Madison Wis.). Luminescence was measured with the Wallac Victor5 plate reader and inhibition is calculated by comparing luciferase activity in experimental reactions versus controls.

Structure (SMILES)	cytotoxicity at 75 μg/mL [1]	MIC [2] [µg/mL]	MIC [3] [µg/mL]	MIC [4] [µg/mL]	MIC [5] [µg/mL]	MIC [6] [µg/mL]	MIC [7] [µg/mL]	MIC [8] [µg/mL]	MIC [9] [µg/mL]	MIC [10] [µg/mL]	MIC [11] [µg/mL]	MIC [12] [µg/mL]	MIC [13] [µg/mL]	MIC [14] [µg/mL]	MIC [15] [µg/mL]	MIC [16] [µg/mL]	phototoxicity at 150 μM, incubated in the dark [18]	further results
CN(C)[C@H]1C(O)=C(C(N)=O)C(=O)[C@@]2(O)C(O)=C3C(=O)c4cccc(-c5ncccn5)c4CC3CC12 (some centres unmarked) [L]	minimal cytotoxicity	0 to 21	0 to 8	0 to 8	0 to 21	0 to 21	22 to 43 (≈ 46.2 to 90.2 µM)	28 to 32 (≈ 58.8 to 67.2 µM)	28 to 32 (≈ 58.8 to 67.2 µM)	28 to 32 (≈ 58.8 to 67.2 µM)	0 to 8	28 to 32 (≈ 58.8 to 67.2 µM)	0 to 21	0 to 21	44 to 64 (≈ 92.3 to 134 µM)	0 to 21		
CN(C)c1ccc(O)c2c1C[C@H]1C[C@H]3[C@H](N(C)C)C(O)=C(C(N)=O)C(=O)[C@@]3(O)C(O)=C1C2=O [Minocycline, reference compound]																		reduced inflammation relative to the untreated control ([17]; 50 mg/kg IP, positive control): 70%
CN(C)c1cccc2c1CC1CC3[C@H](N(C)C)C(O)=C(C(N)=O)C(=O)[C@@]3(O)C(O)=C1C2=O (some centres unmarked) [Compound A]	minimal cytotoxicity	0 to 21	0 to 8	0 to 8	0 to 21	0 to 21	22 to 43 (≈ 49.8 to 97.4 µM)	9 to 27 (≈ 20.4 to 61.2 µM)	9 to 27 (≈ 20.4 to 61.2 µM)	9 to 27 (≈ 20.4 to 61.2 µM)	0 to 8	9 to 27 (≈ 20.4 to 61.2 µM)	44 to 64 (≈ 99.7 to 145 µM)	0 to 21	22 to 43 (≈ 49.8 to 97.4 µM)	0 to 21	not to be appreciably phototoxic	MIC [19]: 9 to 27 µg/mL (≈ 20.4 to 61.2 µM); MIC [20]: 9 to 27 µg/mL (≈ 20.4 to 61.2 µM); decrease in paw inflammation relative to the untreated control ([17]; 75 mg/kg IP): 60%; MIC [21]: 9 to 27 µg/mL (≈ 20.4 to 61.2 µM); MIC [22]: 9 to 27 µg/mL (≈ 20.4 to 61.2 µM); IC20 [23]: > 100 µM; IC50 [23]: > 100 µM
CC(=O)c1cccc2c1CC1CC3[C@H](N(C)C)C(O)=C(C(N)=O)C(=O)[C@@]3(O)C(O)=C1C2=O (some centres unmarked) [J]	minimal cytotoxicity	0 to 21	0 to 8	0 to 8	0 to 21	0 to 21	0 to 21	28 to 32 (≈ 63.6 to 72.7 µM)	28 to 32 (≈ 63.6 to 72.7 µM)	28 to 32 (≈ 63.6 to 72.7 µM)	0 to 8	28 to 32 (≈ 63.6 to 72.7 µM)	0 to 21	0 to 21	0 to 21	0 to 21	not to be appreciably phototoxic	
CC1CCN(Cc2cccc3c2CC2CC4[C@@H](N(C)C)C(O)=C(C(N)=O)C(=O)[C@@]4(O)C(O)=C2C3=O)CC1 (some centres unmarked) [K]	minimal cytotoxicity	0 to 21	0 to 8	0 to 8	0 to 21	0 to 21	0 to 21	28 to 32 (≈ 54.9 to 62.8 µM)	28 to 32 (≈ 54.9 to 62.8 µM)	28 to 32 (≈ 54.9 to 62.8 µM)	0 to 8	28 to 32 (≈ 54.9 to 62.8 µM)	0 to 21	0 to 21	0 to 21	0 to 21		
CC(=O)c1cccc2c1CC1CC3[C@@H](N(C)C)C(O)=C(C(N)=O)C(=O)[C@@]3(O)C(O)=C1C2=O (some centres unmarked) [I]	minimal cytotoxicity	0 to 21	0 to 8	0 to 8	0 to 21	0 to 21	22 to 43 (≈ 49.9 to 97.6 µM)	28 to 32 (≈ 63.6 to 72.7 µM)	28 to 32 (≈ 63.6 to 72.7 µM)	28 to 32 (≈ 63.6 to 72.7 µM)	0 to 8	28 to 32 (≈ 63.6 to 72.7 µM)	0 to 21	0 to 21	0 to 21	0 to 21	not to be appreciably phototoxic	phototoxicity at 30 μM, incubated in the UV light ([18]; UV light 1.6-1.8 mW/cm^2, 30 μM): minimally phototoxic

Source: patent US20070093455A1, “10-substituted tetracyclines and methods of use thereof” (priority 2005, published 2007)
